In patent US20160287666A1 (priority 2015, published 2016):
Ends that are not written are not given here.

How the values were obtained:
human Nav1.7 = human Nav1.7 (Homo sapiens, UniProt Q15858, W1161R); assay type: cell-based
human Nav1.6 [1] = biological target: T1, human Nav1.6 (Homo sapiens, UniProt Q9UQD0); experiment: cell-based or functional assay
human Nav1.6 [2] = biological target: T1, human Nav1.6; assay type: cell-based
thermal pain = tested on: thermal pain; design: species or system mice; details: in vivo
[3] = tested on: CFA-induced tactile allodynia; design: species or system mice; details: mouse, in vivo
acute thermal pain [4] = details: rat, in vivo
[5] = tested on: carrageenan-induced thermal hyperalgesia; design: species or system mice; details: mouse, in vivo
[6] = tested on: CFA-induced thermal hyperalgesia; design: species or system mice; details: mouse, in vivo; for CFA-induced thermal hyperalgesia (thermal latency, Hargreaves test): sc
[7] = tested on: injury-induced pain (formalin); details: rat, in vivo
acute thermal pain [8] = details: rat, in vivo; remark: listed apart in the source
human Nav1.7 (human) = human Nav1.7 (human) (UniProt Q15858); experiment: cell-based or functional assay

T1 sequence (Q9UQD0 whole entry): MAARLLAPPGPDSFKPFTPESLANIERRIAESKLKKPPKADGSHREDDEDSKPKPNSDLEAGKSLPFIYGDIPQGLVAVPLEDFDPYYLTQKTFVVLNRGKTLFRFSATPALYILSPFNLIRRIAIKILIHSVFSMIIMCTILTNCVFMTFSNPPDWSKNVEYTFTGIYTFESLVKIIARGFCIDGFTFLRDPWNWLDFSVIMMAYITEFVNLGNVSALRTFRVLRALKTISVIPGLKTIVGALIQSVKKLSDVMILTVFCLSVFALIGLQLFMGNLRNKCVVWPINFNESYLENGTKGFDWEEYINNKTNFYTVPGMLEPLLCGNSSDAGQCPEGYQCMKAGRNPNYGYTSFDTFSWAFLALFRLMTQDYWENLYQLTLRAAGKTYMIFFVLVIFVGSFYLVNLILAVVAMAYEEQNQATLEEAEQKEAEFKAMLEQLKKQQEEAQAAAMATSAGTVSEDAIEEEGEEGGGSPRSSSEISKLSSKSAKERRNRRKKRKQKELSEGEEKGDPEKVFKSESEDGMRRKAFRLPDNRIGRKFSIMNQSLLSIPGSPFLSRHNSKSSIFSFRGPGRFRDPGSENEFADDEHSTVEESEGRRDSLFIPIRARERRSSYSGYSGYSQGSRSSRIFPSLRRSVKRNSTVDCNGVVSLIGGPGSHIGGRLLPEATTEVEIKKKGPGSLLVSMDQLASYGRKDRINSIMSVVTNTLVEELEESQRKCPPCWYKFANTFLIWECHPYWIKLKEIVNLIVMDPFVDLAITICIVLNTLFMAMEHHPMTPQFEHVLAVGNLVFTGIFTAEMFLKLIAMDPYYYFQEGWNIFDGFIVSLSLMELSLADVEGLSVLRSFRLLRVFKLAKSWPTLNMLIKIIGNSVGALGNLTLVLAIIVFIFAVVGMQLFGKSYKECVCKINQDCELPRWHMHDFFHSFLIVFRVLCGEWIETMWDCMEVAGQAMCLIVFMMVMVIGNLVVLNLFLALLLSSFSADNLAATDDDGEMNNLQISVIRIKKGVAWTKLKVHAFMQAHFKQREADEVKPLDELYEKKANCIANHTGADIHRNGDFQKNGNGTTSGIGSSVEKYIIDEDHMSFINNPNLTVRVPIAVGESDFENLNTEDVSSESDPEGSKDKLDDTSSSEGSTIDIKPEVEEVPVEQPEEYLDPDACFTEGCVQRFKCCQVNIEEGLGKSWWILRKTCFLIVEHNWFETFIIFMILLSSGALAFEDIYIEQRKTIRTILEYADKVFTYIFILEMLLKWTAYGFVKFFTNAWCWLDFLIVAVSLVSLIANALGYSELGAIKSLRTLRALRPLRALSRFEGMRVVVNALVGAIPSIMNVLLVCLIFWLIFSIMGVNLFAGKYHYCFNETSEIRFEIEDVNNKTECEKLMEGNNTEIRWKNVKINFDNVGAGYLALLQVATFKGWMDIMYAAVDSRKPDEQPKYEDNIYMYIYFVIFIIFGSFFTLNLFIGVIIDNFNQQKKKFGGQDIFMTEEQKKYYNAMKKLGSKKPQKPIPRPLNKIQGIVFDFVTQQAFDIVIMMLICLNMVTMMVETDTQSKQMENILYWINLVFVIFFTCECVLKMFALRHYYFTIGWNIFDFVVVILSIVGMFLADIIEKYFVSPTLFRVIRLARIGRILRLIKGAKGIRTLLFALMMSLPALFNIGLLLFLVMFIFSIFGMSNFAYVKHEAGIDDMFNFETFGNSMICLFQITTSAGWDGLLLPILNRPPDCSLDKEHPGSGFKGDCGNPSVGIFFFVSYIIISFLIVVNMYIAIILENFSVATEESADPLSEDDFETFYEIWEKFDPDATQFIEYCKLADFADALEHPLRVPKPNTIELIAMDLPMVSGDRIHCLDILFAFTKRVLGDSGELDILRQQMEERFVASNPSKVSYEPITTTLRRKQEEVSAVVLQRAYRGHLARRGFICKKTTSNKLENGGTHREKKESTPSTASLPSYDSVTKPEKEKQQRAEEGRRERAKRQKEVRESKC

Which “hNav1.7 QP % blk” value (human Nav1.7) does the source give for “GPQCQKWMQTCDARRKCCEGFVCRLWCKKKLW-OH (cysteine pairing not given here) [NV1D3006]” here?
Its value is 52.3% @ 10 nM.

For recombinant Protoxin-II (peptide), which IC50 (QPatch electrophysiology assay) (human Nav1.6 [1]) is on record?
Its IC50 (QPatch electrophysiology assay) is 6.2e-08 M.

And the ratio of IC50 for Nav1.6 to IC50 for Nav1.7 (QPatch) (human Nav1.6 [1])?
The ratio of IC50 for Nav1.6 to IC50 for Nav1.7 (QPatch) was 28 fold.

For “GPQCQKWMQTCDRERKCCEGFVCTLWCRKKLWGSAPAPAPAPAPGSCCNCSSKWCRDHSRCC [NV1D3799]”, which “hNav1.7 QP % blk” value (human Nav1.7) is on record?
The value was 22.2% @ 30 nM.

“GPQCQKWMQSCDRERKCCEGFVCTLWCRKKLW-OH (cysteine pairing not given here) [NV1D3359]” was tested. Which “selectivity towards Nav1.7 compared to recombinant Protoxin-II” value (human Nav1.6 [2]) did it give?
The value was “improved selectivity”.

With “GPACQKWMQTCDRNRKCCEGFVCTLWCRKKLW-OH (cysteine pairing not given here) [NV1D3541]” as the substance, how does the “selectivity towards Nav1.7 compared to recombinant Protoxin-II” value (human Nav1.6 [2]) read?
Its value is “improved selectivity”.

How did the “analgesia in the mouse hotplate test (FIG. 8)” value (thermal pain) turn out when “GPQCQKWMQTCDAERKCCEGFVCRLWCKKKLW-OH (cysteine pairing not given here) [NV1D2775]” was run?
The value was “significant analgesia”.

And the hotplate latency (thermal pain; mouse)?
Its hotplate latency is “reached values near cut-off”.

And the “tactile threshold returned to the control level, time post pump implantation” value [3]?
The value was ≤ 48 h.

And the “time at which the effect reached the maximum, tactile test” value [3]?
Its value is 8 h.

And the “hot plate test latency” value (acute thermal pain [4])?
The value was “significant efficacy”.

And the “analgesia (thermal withdrawal latency) in the carrageenan study” value [5]?
Its value is “significant analgesia”.

And the “anti-hyperalgesic effect first seen, time post-pump implantation” value [6]?
Its value is 4 h.

What about the “thermal latency returned to the control level, time post pump implantation” value [6] of the same substance?
The value was ≤ 48 h.

What about the “time at which the effect reached the maximum, thermal test” value [6] of the same substance?
The value was 8 h.

What about the “CFA-induced thermal hyperalgesia (thermal latency, Hargreaves test)” value [6] of the same substance?
The value was “reached values close to the cut-off”.

And the formalin test flinches [7]?
Its formalin test flinches is “significant efficacy”.

And the “tail flick test latency” value (acute thermal pain [8])?
The value was “significant efficacy”.

How did the “selectivity towards Nav1.7 compared to recombinant Protoxin-II” value (human Nav1.6 [2]) turn out when “GPQCQKWMQTCDRNRKCCEGFVCTLWCRKKLW-OH (cysteine pairing not given here) [NV1D3044]” was run?
Its value is “improved selectivity”.

Which “selectivity towards Nav1.7 compared to recombinant Protoxin-II” value (human Nav1.6 [2]) does the source give for “Ac-QCQKWMQTCDRERKCCEGFVCTLWCRKKLW-NH2 [(-GP) N-Ac-NV1D3034-NH2]” here?
Its value is “improved selectivity”.

For “Ac-QCQKWMQTCDAERKCCEGFSCTLWCKKKLW-NH2 [(-GP) N-Ac-NV1D2974-NH2]”, which “selectivity towards Nav1.7 compared to recombinant Protoxin-II” value (human Nav1.6 [2]) is on record?
Its value is “improved selectivity”.

How did the “selectivity towards Nav1.7 compared to recombinant Protoxin-II” value (human Nav1.6 [2]) turn out when “GPQCQKWMQTCDRERKCCEGFVCTLWCRKKLW-NH2 [NV1D3034-NH2]” was run?
The value was “improved selectivity”.

Which “selectivity towards Nav1.7 compared to recombinant Protoxin-II” value (human Nav1.6 [2]) does the source give for “GPQCQKWMQTCDAERKCCEGFSCTLWCKKKLW-OH (cysteine pairing not given here) [NV1D2974]” here?
Its value is “improved selectivity”.

With “GPYCQKWMQTCDANRKCCEGFSCRLWCKKKLW-OH (cysteine pairing not given here) [NV1D3586]” as the substance, how does the “selectivity towards Nav1.7 compared to recombinant Protoxin-II” value (human Nav1.6 [2]) read?
The value was “improved selectivity”.

For wild type Protoxin-II (peptide), which IC50 (FLIPR assay, veratridine-induced membrane depolarization) (human Nav1.7 (human)) is on record?
Its IC50 (FLIPR assay, veratridine-induced membrane depolarization) is 4 nM.

With “GPACQKWMQTCDANRKCCEGFSCRLWCKKKLW-OH (cysteine pairing not given here) [NV1D3587]” as the substance, how does the “selectivity towards Nav1.7 compared to recombinant Protoxin-II” value (human Nav1.6 [2]) read?
The value was “improved selectivity”.

“GPQCQKWMQTCDAERKCCEGFSCTLWCKKKLW-NH2 [NV1D2974-NH2]” was tested. Which “selectivity towards Nav1.7 compared to recombinant Protoxin-II” value (human Nav1.6 [2]) did it give?
Its value is “improved selectivity”.

Which “selectivity towards Nav1.7 compared to recombinant Protoxin-II” value (human Nav1.6 [2]) does the source give for “GPQCQKWMQTCDRTRKCCEGFVCTLWCRKKLW-OH (cysteine pairing not given here) [NV1D3368]” here?
Its value is “improved selectivity”.

What about the “CFA-induced thermal hyperalgesia (thermal latency, Hargreaves test)” value [6] of the same substance?
The value was “fully reversed”.

Which “selectivity towards Nav1.7 compared to recombinant Protoxin-II” value (human Nav1.6 [2]) does the source give for “GPYCQKWMQTCDANRKCCEGFSCRLWCKKKLW-NH2 [NV1D3586-NH2]” here?
Its value is “improved selectivity”.

Which “selectivity towards Nav1.7 compared to recombinant Protoxin-II” value (human Nav1.6 [2]) does the source give for “GPQCQKWMQTCDRTRKCCEGFVCTLWCRKKLW-NH2 [NV1D3368-NH2]” here?
Its value is “improved selectivity”.

And the CFA-induced thermal hyperalgesia [6]?
The CFA-induced thermal hyperalgesia was “readily reversed”.

“GPQCQKWMQTCDAERKCCEGFVCRLWCKKKLW-NH2 [NV1D2775-NH2]” was tested. Which “selectivity towards Nav1.7 compared to recombinant Protoxin-II” value (human Nav1.6 [2]) did it give?
The value was “improved selectivity”.

Which “selectivity towards Nav1.7 compared to recombinant Protoxin-II” value (human Nav1.6 [2]) does the source give for “GPQCQKWMQTCDRERKCCEGFVCTLWCRKKLW-NH-butyl [NV1D3034-NH-butyl]” here?
Its value is “improved selectivity”.

How did the “selectivity towards Nav1.7 compared to recombinant Protoxin-II” value (human Nav1.6 [2]) turn out when “GPQCQKWMQTCDRERKCCEGFVCTLWCRKKLW-NH-methyl [NV1D3034-NH-methyl]” was run?
The value was “improved selectivity”.

What about the CFA-induced thermal hyperalgesia [6] of the same substance?
The CFA-induced thermal hyperalgesia was “readily reversed”.

“GPQCQKWMQTCDRERKCCQGFVCTLWCRKKLW-OH (cysteine pairing not given here) [NV1D3388]” was tested. Which “selectivity towards Nav1.7 compared to recombinant Protoxin-II” value (human Nav1.6 [2]) did it give?
The value was “improved selectivity”.

For “GPQCQKWMQTCDRERKCCEGFVCTLWCRKKLW-OH (cysteine pairing not given here) [NV1D3034]”, which “hot plate test latency” value (acute thermal pain [4]) is on record?
Its value is “significant efficacy”.

And the “CFA-induced thermal hyperalgesia (thermal latency, Hargreaves test)” value [6]?
Its value is “completely reversed”.

And the formalin test flinches [7]?
The formalin test flinches was “significant efficacy”.

What about the “tail flick test latency” value (acute thermal pain [8]) of the same substance?
The value was “significant efficacy”.
